The source made the active and inactive calls. No cut-off for these calls is given here.
Columns and labels:
[1] = Reversal fold, ratio of adriamycin IC50 to adriamycin IC50 in presence of 0.1 uM test compound for reversal of adriamycin-mediated resistance in human MCF7/ADM cells by MTT method; assay type: functional
[2] = target: ATP-dependent translocase ABCB1 (Homo sapiens, UniProt P08183); assay: Inhibition of P-gp-mediated rhodamine-123 efflux in human MCF7/ADM cells assessed as increase in fluorescence intensity at 0.1 uM incubated for 6 hrs followed by Rh123 addition for 3 hrs by Fluorescence microplate reader analysis; assay type: cell-based; settings: 9 h
[3] = test system: MCF7/ADM; assay: Effect on P-gp expression in human MCF7/ADM cells at 0.1 uM by Western blot analysis; assay type: functional, cell-based
[4] = test system: MCF7/ADM; assay: Induction of apoptosis in human MCF7/ADM cells incubated for 48 hrs in presence of adriamycin by Annexin V-FITC/PI staining based flow cytometric analysis; assay type: functional, cell-based; settings: dose 0.1-1 µM
[5] = test system: MCF7/ADM; assay: Inhibition of colony formation in human MCF7/ADM cells at 0.1 uM incubated for 15 days with fresh media replacement for every 2 days in the presence of adriamycin by crystal violet staining based imaging analysis; assay type: functional, cell-based; settings: time 15.0 day
[6] = test system: MCF7/ADM; assay: Inhibition of cell migration in human MCF7/ADM cells at 0.1 uM incubated for 24 to 48 hrs in the presence of adriamycin by Wound healing assay; assay type: functional, cell-based; settings: time 24-48 hrs
[7] = test system: MCF7/ADM; assay: Inhibition of cell invasion in human MCF7/ADM cells at 0.1 uM incubated for 24 hrs in the presence of adriamycin by Transwell assay; assay type: functional, cell-based
[8] = test system: MCF7/ADM; assay: Antitumor activity against human MCF7/ADM cells xenografted in BABL/c mouse assessed as decrease in tumor volume at 2 mg/kg, ip administered once every 3 days for 25 days in the presence of adriamycin; assay type: functional, organism-based; settings: time 25.0 day
[9] = test system: MCF7/ADM; assay: Antitumor activity against human MCF7/ADM cells xenografted in BABL/c mouse assessed as decrease in tumor weight at 2 mg/kg, ip administered once every 3 days for 25 days in the presence of adriamycin; assay type: functional, organism-based; settings: time 25.0 day
[10] = Antitumor activity against human MCF7/ADM cells xenografted in BABL/c mouse assessed as tumor growth inhibition at 2 mg/kg, ip administered once every 3 days for 25 days in the presence of adriamycin relative to control; assay type: functional; settings: 600 h, time 25 day, read-out: TGI
[11] = test system: MCF7/ADM; assay: Antitumor activity against human MCF7/ADM cells xenografted in BABL/c mouse assessed as increase in tumor degeneration at 2 mg/kg, ip administered once every 3 days for 25 days in the presence of adriamycin by H&E staining based analysis; assay type: functional, organism-based; settings: time 25.0 day
[12] = test system: MCF7/ADM; assay: Antitumor activity against human MCF7/ADM cells xenografted BABL/c mouse model assessed as increase in tumor necrosis at 2 mg/kg, ip administered once every 3 days for 25 days in the presence of adriamycin by H&E staining based analysis; assay type: functional, organism-based; settings: time 25.0 day
[13] = Toxicity in Balb/c mouse xenografted with human MCF7/ADR cells assessed as liver cell necrosis at 2 mg/kg, ip administered once every 3 days for 25 days in presence of adriamycin by H&E staining based analysis; assay type: organism-based, NCI/ADR-RES; settings: in vivo, 600 h, time 25 day
[14] = Toxicity in Balb/c mouse xenografted with human MCF7/ADR cells assessed as kidney cell necrosis at 2 mg/kg, ip administered once every 3 days for 25 days in presence of adriamycin by H&E staining based analysis; assay type: organism-based, NCI/ADR-RES; settings: in vivo, 600 h, time 25 day
[15] = Toxicity in Balb/c mouse xenografted with human MCF7/ADR cells assessed as liver cell necrosis at 10 mg/kg, ip administered once every 3 days for 25 days by H&E staining based analysis; assay type: organism-based, NCI/ADR-RES; settings: in vivo, 600 h, time 25 day
[16] = Toxicity in Balb/c mouse xenografted with human MCF7/ADR cells assessed as kidney cell necrosis at 10 mg/kg, ip administered once every 3 days for 25 days by H&E staining based analysis; assay type: organism-based, NCI/ADR-RES; settings: in vivo, 600 h, time 25 day

Sequence of ATP-dependent translocase ABCB1 (P08183 whole entry): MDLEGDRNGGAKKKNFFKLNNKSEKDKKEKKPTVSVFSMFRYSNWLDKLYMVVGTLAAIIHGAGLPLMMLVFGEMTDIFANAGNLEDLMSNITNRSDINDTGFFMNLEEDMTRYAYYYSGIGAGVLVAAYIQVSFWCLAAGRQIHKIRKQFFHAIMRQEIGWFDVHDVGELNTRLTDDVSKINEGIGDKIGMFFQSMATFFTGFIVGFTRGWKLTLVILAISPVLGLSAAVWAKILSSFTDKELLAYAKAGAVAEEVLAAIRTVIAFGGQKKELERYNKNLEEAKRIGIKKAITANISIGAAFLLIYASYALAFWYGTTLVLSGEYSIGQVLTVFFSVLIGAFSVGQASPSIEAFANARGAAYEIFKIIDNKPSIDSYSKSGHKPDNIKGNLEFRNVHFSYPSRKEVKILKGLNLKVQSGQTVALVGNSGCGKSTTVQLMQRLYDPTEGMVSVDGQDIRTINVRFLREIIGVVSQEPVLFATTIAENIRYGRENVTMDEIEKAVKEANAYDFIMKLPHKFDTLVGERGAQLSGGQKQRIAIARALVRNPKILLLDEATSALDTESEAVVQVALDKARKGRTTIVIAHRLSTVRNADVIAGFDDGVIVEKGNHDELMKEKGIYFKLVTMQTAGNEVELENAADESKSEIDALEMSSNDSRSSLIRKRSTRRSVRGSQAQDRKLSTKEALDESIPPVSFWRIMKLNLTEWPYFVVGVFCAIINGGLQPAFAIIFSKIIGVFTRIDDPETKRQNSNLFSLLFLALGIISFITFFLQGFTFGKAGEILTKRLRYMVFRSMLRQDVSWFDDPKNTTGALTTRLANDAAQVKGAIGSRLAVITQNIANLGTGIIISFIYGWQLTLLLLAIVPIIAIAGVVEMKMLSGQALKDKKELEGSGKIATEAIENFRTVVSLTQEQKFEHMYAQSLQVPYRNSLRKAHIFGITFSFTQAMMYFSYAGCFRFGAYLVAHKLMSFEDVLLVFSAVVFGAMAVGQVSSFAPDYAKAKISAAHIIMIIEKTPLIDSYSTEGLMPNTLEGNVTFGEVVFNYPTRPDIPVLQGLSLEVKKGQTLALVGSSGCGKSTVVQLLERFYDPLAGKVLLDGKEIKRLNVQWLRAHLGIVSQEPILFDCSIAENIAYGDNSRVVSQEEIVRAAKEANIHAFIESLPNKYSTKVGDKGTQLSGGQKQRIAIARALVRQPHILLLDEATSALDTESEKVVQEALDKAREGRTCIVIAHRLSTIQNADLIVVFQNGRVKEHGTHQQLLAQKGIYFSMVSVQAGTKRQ

Row | Compound | Ratio IC50 [1] | further results
1 | COc1cc2c(cc1OC)CN(CCNC(=O)c1ccc(-c3ccc4ncnc(NCc5cccc(Br)c5)c4c3)cc1)CC2 | 1.2 | 
2 | COc1cc2c(cc1OC)CN(CCNC(=O)c1ccc(-c3ccc4ncnc(Nc5ccc(Br)cc5)c4c3)cc1)CC2 | 16.3 | 
3 | COc1cc2c(cc1OC)CN(CCNC(=O)c1ccc(-c3ccc4ncnc(Nc5ccc(Cl)cc5)c4c3)cc1)CC2 | 4.3 | 
4 | COC(=O)c1cccc(Nc2ncnc3ccc(-c4ccc(C(=O)NCCN5CCc6cc(OC)c(OC)cc6C5)cc4)cc23)c1 | 2.4 | 
5 | COc1ccccc1Nc1ncnc2ccc(-c3ccc(C(=O)NCCN4CCc5cc(OC)c(OC)cc5C4)cc3)cc12 | 83.4 | inhibition (INH) [2]: Active; Activity [3]: inactive; Activity [4]: Dose-Dependent Effect; inhibition [5]: Active; inhibition [6]: Active; inhibition [7]: Active; Activity [8]: Active; Activity [9]: Active; inhibition in vivo at 2 mg/kg [10]: 69.7%; Activity [11]: Active; Activity [12]: Active; Activity [13]: Non-Toxic; Activity [14]: Non-Toxic
6 | COc1cc2c(cc1OC)CN(CCNC(=O)c1ccc(-c3ccc4ncnc(Nc5cccc(Cl)c5)c4c3)cc1)CC2 | 11.6 | 
7 | COc1cc2c(cc1OC)CN(CCNC(=O)c1ccc(-c3ccc4ncnc(Nc5cccc(C)c5)c4c3)cc1)CC2 | 24.3 | 
8 | COc1cc2c(cc1OC)CN(CCNC(=O)c1ccc(-c3ccc4ncnc(Nc5ccc(C)cc5)c4c3)cc1)CC2 | 3.1 | 
9 | COc1cccc2c1C(=O)c1c(O)c3c(c(O)c1C2=O)C[C@@](O)(C(=O)CO)C[C@@H]3O[C@H]1C[C@H](N)[C@H](O)[C@H](C)O1.Cl [DOXORUBICIN HYDROCHLORIDE] |  | Activity [15]: Non-Toxic; Activity [16]: Non-Toxic
10 | COc1cc2c(cc1OC)CN(CCNC(=O)c1ccc(-c3ccc4ncnc(Nc5cccc(Br)c5)c4c3)cc1)CC2 | 3.4 | 
11 | COc1cc2c(cc1OC)CN(CCNC(=O)c1ccc(-c3ccc4ncnc(NCc5cccc(Cl)c5)c4c3)cc1)CC2 | 1.5 | 
12 | COc1cc2c(cc1OC)CN(CCNC(=O)c1ccc(-c3ccc4ncnc(NCc5ccc(Cl)cc5)c4c3)cc1)CC2 | 9.3 | 
13 | COc1cc2c(cc1OC)CN(CCNC(=O)c1ccc(-c3ccc4ncnc(Nc5ccc(F)cc5)c4c3)cc1)CC2 | 14.1 | 
14 | COc1cc2c(cc1OC)CN(CCNC(=O)c1ccc(-c3ccc4ncnc(Nc5ccccc5Br)c4c3)cc1)CC2 | 16.6 | 
15 | COc1cccc(Nc2ncnc3ccc(-c4ccc(C(=O)NCCN5CCc6cc(OC)c(OC)cc6C5)cc4)cc23)c1 | 1.3 | 
16 | COc1cc2c(cc1OC)CN(CCNC(=O)c1ccc(-c3ccc4ncnc(Nc5cccc(F)c5)c4c3)cc1)CC2 | 5.3 | 
17 | COc1cc2c(cc1OC)CN(CCNC(=O)c1ccc(-c3ccc4ncnc(NCc5cccc(F)c5)c4c3)cc1)CC2 | 22.2 | 
18 | COc1cc2c(cc1OC)CN(CCNC(=O)c1ccc(-c3ccc4ncnc(Nc5ccccc5F)c4c3)cc1)CC2 | 2.4 | 
19 | COc1cc2c(cc1OC)CN(CCNC(=O)c1ccc(-c3ccc4ncnc(Nc5cccc(C#N)c5)c4c3)cc1)CC2 | 2.5 | 
20 | COC(=O)c1ccc(Nc2ncnc3ccc(-c4ccc(C(=O)NCCN5CCc6cc(OC)c(OC)cc6C5)cc4)cc23)cc1 | 10.1 | 
21 | COc1cc2c(cc1OC)CN(CCNC(=O)c1ccc(-c3ccc4ncnc(Nc5ccccc5C)c4c3)cc1)CC2 | 41.3 | 
22 | COc1cc2c(cc1OC)CN(CCc1ccc(NC(=O)c3cc(OC)c(OC)cc3NC(=O)c3cnc4ccccc4c3)cc1)CC2 [TARIQUIDAR] | 11 | inhibition (INH) [2]: Active; inhibition [6]: Active; inhibition [7]: Active; Activity [8]: Active; Activity [9]: Active; inhibition in vivo at 2 mg/kg [10]: 49.4%; Activity [13]: Non-Toxic; Activity [14]: Non-Toxic
23 | COc1ccc(Nc2ncnc3ccc(-c4ccc(C(=O)NCCN5CCc6cc(OC)c(OC)cc6C5)cc4)cc23)cc1F | 25.2 | 
24 | COc1cc2c(cc1OC)CN(CCNC(=O)c1ccc(-c3ccc4ncnc(Nc5ccccc5)c4c3)cc1)CC2 | 3.5 | 
25 | COc1cc2c(cc1OC)CN(CCNC(=O)c1ccc(-c3ccc4ncnc(NCc5ccc(F)cc5)c4c3)cc1)CC2 | 12.1 | 
26 | COc1cc2c(cc1OC)CN(CCNC(=O)c1ccc(-c3ccc4ncnc(NCc5ccccc5F)c4c3)cc1)CC2 | 7.2 | 
27 | COc1cc2c(cc1OC)CN(CCNC(=O)c1ccc(-c3ccc4ncnc(NCc5ccccc5)c4c3)cc1)CC2 | 3.3 | 
28 | COc1cc2c(cc1OC)CN(CCNC(=O)c1ccc(-c3ccc4ncnc(Nc5ccccc5Cl)c4c3)cc1)CC2 | 13.3 | 

Reference: ChEMBL document CHEMBL5537148, “Discovery of (quinazolin-6-yl)benzamide derivatives containing a 6,7-dimethoxy-1,2,3,4-tetrahydroisoquinoline moiety as potent reversal agents against P-glycoprotein-mediated multidrug resistance” (Eur J Med Chem, 2024)
